Reference: patent publication US9981969B2, “Imidazole derivatives and methods of use thereof for improving the pharmacokinetics of a drug” (MERCK SHARP & DOHME CORP., priority 2013, dated 2018)

Key:
[1] = target: T1, CYP1A2 (Homo sapiens, UniProt P05177); experiment: Cocktail assay for CYPs in human liver microsomes, phenacetin O-deethylation (1A2); format: biochemical; details: 10 μM phenacetin, 10 min at 37° C.
T1 construct: 0.1 mg/mL protein human liver microsomes (BD Gentest); tissue BD Gentest; host or cells: human liver microsomes
T1 sequence (P05177 1-516): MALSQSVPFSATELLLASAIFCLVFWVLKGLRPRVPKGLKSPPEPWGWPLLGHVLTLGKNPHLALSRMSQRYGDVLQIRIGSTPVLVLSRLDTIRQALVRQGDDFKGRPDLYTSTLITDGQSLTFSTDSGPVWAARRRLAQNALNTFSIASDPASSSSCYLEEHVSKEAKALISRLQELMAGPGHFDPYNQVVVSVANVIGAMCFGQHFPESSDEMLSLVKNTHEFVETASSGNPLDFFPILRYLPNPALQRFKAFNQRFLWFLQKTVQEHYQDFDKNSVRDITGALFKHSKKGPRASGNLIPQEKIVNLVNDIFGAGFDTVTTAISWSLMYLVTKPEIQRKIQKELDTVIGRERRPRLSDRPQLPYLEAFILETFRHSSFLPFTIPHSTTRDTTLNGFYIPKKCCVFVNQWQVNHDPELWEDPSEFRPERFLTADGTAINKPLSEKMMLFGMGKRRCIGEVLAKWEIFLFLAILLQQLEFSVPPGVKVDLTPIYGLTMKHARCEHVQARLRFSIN
Experimental: (§1) This assay was performed in a standard 96-well plate design. IC50 values were calculated from the percent inhibition observed for each test compound at 6 concentrations (for example, 0.0032, 0.016, 0.08, 0.4, 2 and 10 μM). The incubation substrate mix contains 10 μM phenacetin (1A2), 5 μM diclofenac (2C9), 30 μM mephenytoin (2C19), 5 μM dextromethorphan (2D6) and 2 μM midazolam (3A4), 0.1 mg/mL protein human liver microsomes (BD Gentest), 1 mM NAPDH, 3.3 mM MgCl2 and 100 mM potassium phosphate buffer (pH 7.4). The production of the metabolite of each probe substrate was determined after incubation for 10 min at 37° C. Quantitation of the metabolite peak area ratio against an internal standard (tolbutamide) was determined by LC/MS/MS analysis following acetonitrile treatment of the incubations.
(§2) Samples were analyzed in the MRM mode with a SCIEX API-4000 mass spectrometer (Applied Biosystems, Foster City, Calif.), with a Shimadzu LC-20 AD pump (Shimadzu corporation, Kyoto, JP) and a CTC PAL autosampler (Agilent Technologies, Switzerland). A Phenomenex, Luna, 5 μm, 100A, 2.00×30 mm HPLC column was used for the separation. The mobile phases were: (A) 0.1% formic acid in water and (B) 0.1% formic acid in acetonitrile. The binary gradient was as follows. AutoSampler: CTC PAL
(§3) The peak area ratio of the analyte to the internal standard was used to quantify the metabolite. The values of peak area ratios in the presence of test compound were compared to those of maximum or minimum controls and were expressed as % inhibition by interpolating between the maximum and minimum peak area ratios. Incubations with no inhibitor were defined as the maxima. The following equation was used to calculate the % inhibition: [1−[(X−Low control)/(High control−Low control)]]*100 For the IC50 calculation, SigmaPlot was used to plot the mean % inhibition versus the test compound concentrations and for non-linear regression analysis of the data. Depending on the range of data points defining the inhibition curve, the data may have been fit to the 4-parameter logistic equation.

[2] = target: T2, human CYP11B2 (Homo sapiens, UniProt P19099); experiment: IC50 vs CYP11B2 by measurement of aldosterone synthesis in V79 cells; format: cell-based; details: V79 cells expressing human CYP11B2, 750 nM DOC, aldosterone HTRF
T2 construct: expressed in transfected cells
T2 sequence (P19099 25-503): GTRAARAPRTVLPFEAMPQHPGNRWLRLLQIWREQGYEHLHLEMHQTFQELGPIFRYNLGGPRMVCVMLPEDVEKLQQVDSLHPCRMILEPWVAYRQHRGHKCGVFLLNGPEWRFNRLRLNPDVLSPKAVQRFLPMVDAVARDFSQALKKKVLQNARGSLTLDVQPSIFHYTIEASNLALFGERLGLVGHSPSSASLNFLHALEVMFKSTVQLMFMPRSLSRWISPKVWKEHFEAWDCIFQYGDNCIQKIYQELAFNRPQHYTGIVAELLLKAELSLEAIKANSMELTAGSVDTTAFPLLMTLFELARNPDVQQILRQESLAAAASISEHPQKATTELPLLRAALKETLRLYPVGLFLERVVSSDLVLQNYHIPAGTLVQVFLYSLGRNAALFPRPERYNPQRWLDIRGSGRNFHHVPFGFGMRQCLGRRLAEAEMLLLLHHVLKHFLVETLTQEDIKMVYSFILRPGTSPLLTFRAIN
Experimental: (§4) This assay was performed in a standard 384-well plate design using cultured V79 cells stably expressing human CYP11B1 or human CYP11B2. Test compounds at 10 concentrations (for example, 10000, 3333.3, 1111.1, 370.4, 123.5, 41.2, 13.7, 4.6, 1.5 and 0.5 nM) were added in 384-well plate after the cell-seeding procedure. The incubation substrate contains 1500 nM RSS for CYP11B1 assay/750 nM DOC for CYP11B2 assay. The Cortisol/Aldosterone production of cell culture supernatant was determined by Cortisol/Aldosterone HTRF kit after for about 15 hours incubation at RT (protect from light). IC50 (nM) values were calculated from the percent inhibition observed for each test compound at 10 concentrations.
(§5) The assay plate was read using Envision (Perkin Elmer, Waltham, Mass.) at 665 nm and 590 nm (using Filter Barcode of 217#, 205#; Mirror Barcode of 446#).
(§6) Data are analyzed using Assay Data Analyzer. All ratio data (665 nm/590 nm) are back calculated according to the standard curve, resulting in Cortisol/Aldosterone concentrations. IC50 (nM) values are reported as the Inflection Point (IP) of a four parameter fit of the titration data.
(§7) The following equation was used to calculate the % inhibition: % Activity=100×{1−(Sample_back calculated Cortisol/Aldosterone concentration−LC_back calculated Cortisol/Aldosterone concentration)/(HC_back calculated Cortisol/Aldosterone concentration−LC_back calculated Cortisol/Aldosterone concentration)} Curve Fitting: Four Parameter Logistic: […]

[3] = target: T3, CYP2C9 (Homo sapiens, UniProt P11712); experiment: Cocktail assay for CYPs in human liver microsomes, diclofenac 4′-hydroxylation (2C9); format: biochemical; details: 5 μM diclofenac, 10 min at 37° C.
T3 construct: 0.1 mg/mL protein human liver microsomes (BD Gentest); tissue BD Gentest; host or cells: human liver microsomes
Experimental: as §1, §2, §3

[4] = target: T4, CYP2C19 (Homo sapiens, UniProt P33261); experiment: Cocktail assay for CYPs in human liver microsomes, mephenytoin 4′-hydroxylation (2C19); format: biochemical; details: 30 μM mephenytoin, 10 min at 37° C.
T4 construct: 0.1 mg/mL protein human liver microsomes (BD Gentest); tissue BD Gentest; host or cells: human liver microsomes
Experimental: as §1, §2, §3

[5] = target: T5, CYP2D6 (Homo sapiens, UniProt P10635); experiment: Cocktail assay for CYPs in human liver microsomes, dextromethorphan O-demethylation (2D6); format: biochemical; details: 5 μM dextromethorphan, 10 min at 37° C.
T5 construct: 0.1 mg/mL protein human liver microsomes (BD Gentest); tissue BD Gentest; host or cells: human liver microsomes
Experimental: as §1, §2, §3

[6] = target: T6, human CYP11B1 (Homo sapiens, UniProt P15538); experiment: IC50 vs CYP11B1 by measurement of cortisol synthesis in V79 cells; format: cell-based; details: V79 cells expressing human CYP11B1, 1500 nM RSS, cortisol HTRF
T6 construct: expressed in transfected cells
T6 sequence (P15538 25-503): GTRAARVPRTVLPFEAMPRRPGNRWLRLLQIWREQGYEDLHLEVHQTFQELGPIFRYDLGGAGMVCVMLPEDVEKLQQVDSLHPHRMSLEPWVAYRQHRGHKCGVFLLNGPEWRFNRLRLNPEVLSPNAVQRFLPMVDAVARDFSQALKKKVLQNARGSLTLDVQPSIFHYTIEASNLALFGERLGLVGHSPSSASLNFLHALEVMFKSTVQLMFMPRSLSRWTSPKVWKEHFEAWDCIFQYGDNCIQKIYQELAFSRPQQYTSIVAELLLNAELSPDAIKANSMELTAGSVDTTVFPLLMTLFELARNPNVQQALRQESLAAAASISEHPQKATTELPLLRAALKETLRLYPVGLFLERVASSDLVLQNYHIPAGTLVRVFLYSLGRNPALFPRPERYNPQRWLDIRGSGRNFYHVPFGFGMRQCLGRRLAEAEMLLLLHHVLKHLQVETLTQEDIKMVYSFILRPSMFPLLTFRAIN
Experimental: as §4, §5, §6, §7

[7] = target: T7, CYP3A4 (Homo sapiens, UniProt P08684); experiment: Cocktail assay for CYPs in human liver microsomes, midazolam 1′-hydroxylation (3A4); format: biochemical; details: 2 μM midazolam, 10 min at 37° C.
T7 construct: 0.1 mg/mL protein human liver microsomes (BD Gentest); tissue BD Gentest; host or cells: human liver microsomes
Experimental: as §1, §2, §3

T3 sequence (P11712 whole entry): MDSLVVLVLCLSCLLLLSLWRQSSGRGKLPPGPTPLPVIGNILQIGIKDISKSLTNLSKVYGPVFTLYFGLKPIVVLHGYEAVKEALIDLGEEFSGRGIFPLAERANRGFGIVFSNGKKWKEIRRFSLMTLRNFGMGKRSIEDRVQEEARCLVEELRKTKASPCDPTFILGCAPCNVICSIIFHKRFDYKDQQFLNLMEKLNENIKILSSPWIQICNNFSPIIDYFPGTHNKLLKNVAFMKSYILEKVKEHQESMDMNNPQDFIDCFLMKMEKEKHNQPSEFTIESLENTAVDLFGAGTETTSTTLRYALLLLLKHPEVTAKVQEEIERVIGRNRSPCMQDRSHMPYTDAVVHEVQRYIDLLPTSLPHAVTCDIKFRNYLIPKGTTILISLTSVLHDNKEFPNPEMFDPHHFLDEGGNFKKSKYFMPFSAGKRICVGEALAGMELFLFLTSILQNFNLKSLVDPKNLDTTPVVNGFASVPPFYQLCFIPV
T4 sequence (P33261 whole entry): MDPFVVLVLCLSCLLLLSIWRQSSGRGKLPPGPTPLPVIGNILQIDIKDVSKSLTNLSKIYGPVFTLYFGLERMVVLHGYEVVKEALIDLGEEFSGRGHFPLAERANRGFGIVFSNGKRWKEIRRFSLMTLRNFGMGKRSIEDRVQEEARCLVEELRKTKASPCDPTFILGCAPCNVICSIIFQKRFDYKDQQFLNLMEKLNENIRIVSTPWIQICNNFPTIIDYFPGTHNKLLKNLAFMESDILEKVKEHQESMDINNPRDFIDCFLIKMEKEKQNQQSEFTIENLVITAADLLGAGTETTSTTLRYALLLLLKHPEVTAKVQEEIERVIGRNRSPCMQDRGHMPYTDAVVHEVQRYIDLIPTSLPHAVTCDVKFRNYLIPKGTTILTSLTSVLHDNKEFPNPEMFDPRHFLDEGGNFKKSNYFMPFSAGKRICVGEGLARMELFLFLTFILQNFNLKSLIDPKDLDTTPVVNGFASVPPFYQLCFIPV
T5 sequence (P10635 whole entry): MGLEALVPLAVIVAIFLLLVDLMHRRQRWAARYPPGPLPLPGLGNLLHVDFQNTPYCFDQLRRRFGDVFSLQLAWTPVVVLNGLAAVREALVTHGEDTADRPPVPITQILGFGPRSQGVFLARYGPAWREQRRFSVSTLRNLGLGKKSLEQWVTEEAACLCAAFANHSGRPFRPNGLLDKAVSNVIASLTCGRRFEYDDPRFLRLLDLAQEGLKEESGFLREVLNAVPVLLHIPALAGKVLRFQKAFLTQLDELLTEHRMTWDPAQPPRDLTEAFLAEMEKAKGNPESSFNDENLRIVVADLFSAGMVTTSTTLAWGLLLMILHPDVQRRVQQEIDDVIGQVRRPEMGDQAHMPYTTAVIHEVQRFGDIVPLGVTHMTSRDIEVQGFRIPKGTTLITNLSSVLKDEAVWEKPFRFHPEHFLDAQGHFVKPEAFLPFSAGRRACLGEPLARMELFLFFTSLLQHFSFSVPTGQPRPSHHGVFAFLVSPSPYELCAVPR
T7 sequence (P08684 whole entry): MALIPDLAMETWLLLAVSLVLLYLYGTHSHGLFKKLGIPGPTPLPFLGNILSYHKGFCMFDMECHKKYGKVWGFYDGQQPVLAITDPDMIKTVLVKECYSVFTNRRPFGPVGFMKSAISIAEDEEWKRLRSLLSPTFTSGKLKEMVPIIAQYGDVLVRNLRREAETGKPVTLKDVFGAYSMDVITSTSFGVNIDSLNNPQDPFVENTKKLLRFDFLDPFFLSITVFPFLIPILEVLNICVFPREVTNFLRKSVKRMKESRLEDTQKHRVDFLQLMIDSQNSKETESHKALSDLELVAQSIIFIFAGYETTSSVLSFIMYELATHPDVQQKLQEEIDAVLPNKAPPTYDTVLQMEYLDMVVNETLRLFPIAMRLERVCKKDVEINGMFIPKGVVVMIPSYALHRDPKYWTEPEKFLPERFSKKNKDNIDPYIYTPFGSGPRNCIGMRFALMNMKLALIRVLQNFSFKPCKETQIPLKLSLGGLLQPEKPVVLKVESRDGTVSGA

Compound | IC50 [1] [µM] | IC50 [2] [µM] | IC50 [3] [µM] | IC50 [4] [µM] | IC50 [5] [µM] | IC50 [6] [µM] | IC50 [7] [nM]
CO[C@H]1CN(C2CCN(C(=O)c3cncn3[C@@H](C)c3ccccc3-c3ccc(F)cc3)CC2)CC[C@@H]1O [Compound 10] | > 10 | > 50 | > 10 | > 10 | 5.91 | > 50 | 5
CO[C@H]1CN(C2CCN(C(=O)c3cncn3[C@@H](C)c3ccccc3-c3ccc(F)cc3)CC2)CC[C@H]1O [Compound 11] | > 10 | > 50 | > 10 | > 10 | 7.06 | 26.7 | 6
CO[C@@H]1CN(C2CCN(C(=O)c3cncn3[C@@H](C)c3ccccc3-c3ccc(F)cc3)CC2)CC[C@@H]1O [Compound 12] | > 10 | > 50 | > 10 | > 10 | 5.08 | 41.9 | 6.2
C[C@@H](c1ccccc1-c1ccc(F)cc1)n1cncc1C(=O)N1CCC(N2CC[C@H](O)[C@@H](F)C2)CC1 [Compound 13] | > 10 | > 50 | > 10 | > 10 | > 10 | 22.8 | 5.3
C[C@@H](c1ccccc1-c1ccc(F)cc1)n1cncc1C(=O)N1CCC(N2CC[C@@H](O)[C@H](F)C2)CC1 [Compound 14] | > 10 | > 50 | > 10 | > 10 | > 10 | 22 | 6.1
C[C@@H](c1ccccc1-c1ccc(F)cc1)n1cncc1C(=O)N1CCC(N2C[C@@H](O)[C@H](F)C2)CC1 [Compound 15] | > 10 | > 50 | > 10 | > 10 | > 10 | 20.2 | 4.1
C[C@@H](c1ccccc1-c1ccc(F)cc1)n1cncc1C(=O)N1CCC(N2C[C@H](O)[C@@H](F)C2)CC1 [Compound 16] | > 10 | 24.3 | > 10 | > 10 | > 10 | 10.2 | 4.3
C[C@@H]1CN(C2CCN(C(=O)c3cncn3[C@@H](C)c3ccccc3-c3ccc(F)cc3)CC2)CC[C@@H]1O [Compound 17] | > 10 | 31.6 | > 10 | > 10 | 8.6 | 11.5 | 4.9
C[C@@H]1CN(C2CCN(C(=O)c3cncn3[C@@H](C)c3ccccc3-c3ccc(F)cc3)CC2)CC[C@H]1O [Compound 18] | > 10 | > 50 | > 10 | > 10 | > 10 | > 50 | 9.7
C[C@@H](c1ccccc1-c1ccc(F)cc1)n1cncc1C(=O)N1CCC(N2CCC(F)C(O)C2)CC1 (stereo partly drawn) [Compound 19] | > 10 | > 50 | > 10 | > 10 | > 10 | 32.5 | 5.7
C[C@@H](c1ccccc1-c1ccc(F)cc1)n1cncc1C(=O)N1CCC(N2CCNC(=O)C2)CC1 [Compound 20] | > 10 | 31.2 | > 10 | > 10 | > 10 | 16.8 | 4.5
C[C@@H](c1ccccc1-c1ccc(F)cc1)n1cncc1C(=O)N1CCC(N2CCNC(=O)CC2)CC1 [Compound 21] | > 10 | > 50 | > 10 | > 10 | > 10 | > 50 | 6.8
